Source: PMC6617451, “Dual Kit/Aur Inhibitors as Chemosensitizing Agents for the Treatment of Melanoma: Design, Synthesis, Docking Studies and Functional Investigation” (Scientific Reports, 2019)
Several values for one entry are separate records, joined by “and”; a condition that tells them apart may be missing. Equal entries are not always repeated.

Legend:
AurA = biological target: T1, AurA (Homo sapiens, UniProt O14965); assay: Protein kinase inhibitory assay, AurA; assay type: biochemical; conditions: 10 μM test compound
T1 construct: purchased ThermoFisher Scientific
T1 sequence (O14965 1-403): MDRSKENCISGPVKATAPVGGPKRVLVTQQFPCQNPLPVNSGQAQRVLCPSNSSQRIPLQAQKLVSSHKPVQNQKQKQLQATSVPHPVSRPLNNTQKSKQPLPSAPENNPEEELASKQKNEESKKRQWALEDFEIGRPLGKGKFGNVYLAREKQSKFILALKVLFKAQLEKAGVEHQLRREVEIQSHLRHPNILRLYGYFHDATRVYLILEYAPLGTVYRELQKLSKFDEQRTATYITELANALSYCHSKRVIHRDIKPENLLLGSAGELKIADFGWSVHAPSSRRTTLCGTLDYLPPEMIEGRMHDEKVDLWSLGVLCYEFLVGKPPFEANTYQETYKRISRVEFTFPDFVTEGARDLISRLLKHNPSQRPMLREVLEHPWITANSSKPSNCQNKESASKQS

AurB phosphorylation = biological target: T2, AurB phosphorylation (Homo sapiens, UniProt Q96GD4); assay: AurB phosphorylation (Phospho-Thr232) ELISA assay in melanoma cells; assay type: cell-based; conditions: WM266-4 and A2058 cells, 6a 10 μM, 72 h, vs vehicle-treated
T2 construct: endogenous in cells; host or cells: WM266-4 and A2058 human melanoma cells
Protocol: (§1) WM266-4 and A2058 cells (5 × 10^4 cells/well) were treated for 72 h with compound 6a (10 μM) or with vehicle alone. To measure phospho c-Kit and phospho AurB, at the end of the experiment, the cells were harvested and immediately frozen with liquid nitrogen. Cells were then lysed and the total protein was measured. In each sample, an equal amount of proteins was then assayed for human c-Kit and AurB phosporylation by the Human Phospho-CD117/c-kit ELISA Kit (Assaysolution; Woburn, MA, USA) and the AurB (Phospho-Thr232) ELISA Kit (Aviva System Biology; San Diego, CA, USA) and normalized by total protein c-Kit and AurB concentration measured by c-Kit and AurB ELISA kits, respectively. The optical density was determined using the microplate reader Multiskan Spectrum set to 450 nm. All experiments were repeated, independently, six times with at least nine samples for each concentration. The data were expressed as the ratio of phosphorylated c-Kit or AurB/total c-Kit or AurB.

c-Kit phosphorylation = biological target: T3, c-Kit phosphorylation (Homo sapiens, UniProt P10721); assay: c-Kit phosphorylation ELISA assay in melanoma cells; assay type: cell-based; conditions: WM266-4 and A2058 cells, 6a 10 μM, 72 h, vs vehicle-treated
T3 construct: endogenous in cells; host or cells: WM266-4 and A2058 human melanoma cells
Protocol: as §1

AurC = biological target: T4, AurC (Homo sapiens, UniProt Q9UQB9); assay: Protein kinase inhibitory assay, AurC; assay type: biochemical; conditions: 10 μM test compound
T4 construct: purchased ThermoFisher Scientific
T4 sequence (Q9UQB9 1-309): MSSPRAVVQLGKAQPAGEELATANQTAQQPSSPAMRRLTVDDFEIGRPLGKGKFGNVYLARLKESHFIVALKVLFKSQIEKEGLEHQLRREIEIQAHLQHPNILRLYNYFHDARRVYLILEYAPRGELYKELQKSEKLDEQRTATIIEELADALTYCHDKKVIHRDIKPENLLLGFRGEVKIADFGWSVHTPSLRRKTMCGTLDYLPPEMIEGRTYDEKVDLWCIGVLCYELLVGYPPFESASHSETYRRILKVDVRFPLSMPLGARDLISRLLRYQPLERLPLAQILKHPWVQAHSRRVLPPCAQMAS
Protocol: (§2) Cell culture media EMEM and DMEM, fetal bovine serum (FBS), L-glutamine, and antibiotics were from Sigma-Aldrich St. Louis, MO, USA). Vemurafenib was purchased from Selleckchem (Munich, Germany). Human recombinant protein kinases and Protein kinase assay kits were from ThermoFisher Scientific (MA, US). Plastics were supplied by Sarstedt (Verona, Italy).
(§3) Inhibitory assays were performed in accordance with a previously reported procedure, standardized for RET and VEGFR2[28],[41]. Test compounds were dissolved in 100% DMSO and diluted to the appropriate concentrations with the reaction buffer, provided by the kit. […] The inhibitory effect of the novel compounds was routinely estimated at 10 μM concentration.

WM266-4 cell line = assay: Proliferation assay, WM266-4 melanoma cells (single agents and combination, Chou-Talalay); assay type: cell-based, human; conditions: for Dose Reduction Index (DRI) 6a + vemurafenib: DRI of each drug in the combination
Protocol: (§4) Compound 6a, merging the best inhibitory profile against the target c-Kit/AurB kinases, was tested on the human A2058 (American Type Culture Collection, Manassas, USA) and WM266-4 (European Collection of Authenticated Cell Cultures, Salisbury, UK) cell lines, chosen as representative of BRAF-mutated melanoma cell lines, to investigate its anti-proliferative efficacy. […]. Vemurafenib, the BRAF V600E inhibitor currently used for the treatment of inoperable, metastatic melanoma, was used as the reference compound. […] The level of possible interaction between the two kinase inhibitors, synergistic, additive or antagonist in nature, was determined by the method of Chou-Talaly[38] and quantitated through the combination index (CI), calculated exploiting the following multiple drug-effect Eq. (1)1 CI=[(D)1/(Dx)1]+[(D)2/(Dx)2] and referred to as synergism, additive effect and antagonism when CI < 1, CI = 1 and CI > 1, respectively.
(§5) The Dose Reduction Index (DRI) was calculated as well, to assess the theoretical magnitude of concentration reduction allowed for the two drugs when given in synergistic combination in vitro to achieve the same effect as that obtained with the concentration of each single agent. DRI was calculated by the following Eq. (2):2 (DRI)=(Dx)/(D)
(§6) Test compounds 6a and vemurafenib were dissolved in a stock solution of 10 mM in 100% dimethylsulfoxide (DMSO) for in vitro studies. DMSO concentration in the control’s media was the same used to make up the highest concentration of test compounds in growth media for the same experiment. In vitro chemosensitivity was tested on melanoma WM266-4 and A2058 cell lines. Cells were grown in EMEM and DMEM media, respectively, plated in sterile 24-well plastic plates and treated for 72 h (using 10^3 cells/well in 1 mL of medium) with added 6a (range of 1–100 μM), or vemurafenib (0.0001–100 μM) alone. The synergistic effect between 6a and vemurafenib was calculated with the method of Chou-Talaly[38] based on the multiple drug-effect equation and quantitated by the combination index (CI) and the dose reduction index (DRI), where CI < 1 and DRI > 1 indicate synergism. At the end of the experiment, cells were harvested with trypsin/EDTA, and viable cells were quantified using the automatic cell counter ADAM MC Digital B (Twin Helix, Milano, Italy). The data are presented as the percentage of vehicle-treated cells. […] All experiments were repeated independently three times with at least nine samples for each concentration.

A2058 cell line = assay: Proliferation assay, A2058 melanoma cells (single agents and combination, Chou-Talalay); assay type: cell-based, human; conditions: for Dose Reduction Index (DRI) 6a + vemurafenib: DRI of each drug in the combination
Protocol: as §4, §5, §6

AurB = biological target: T5, AurB (Homo sapiens, UniProt Q96GD4); assay: Protein kinase inhibitory assay, AurB; assay type: biochemical; conditions: 10 μM test compound
T5 construct: purchased ThermoFisher Scientific
Protocol: as §2, §3

[1] = WM266-4, affected cell fraction 75%
[2] = WM266-4, affected cell fraction 85%
[3] = WM266-4, affected cell fraction 95%
[4] = A2058, affected cell fraction 75%
[5] = A2058, affected cell fraction 85%

T5 sequence (Q96GD4 whole entry): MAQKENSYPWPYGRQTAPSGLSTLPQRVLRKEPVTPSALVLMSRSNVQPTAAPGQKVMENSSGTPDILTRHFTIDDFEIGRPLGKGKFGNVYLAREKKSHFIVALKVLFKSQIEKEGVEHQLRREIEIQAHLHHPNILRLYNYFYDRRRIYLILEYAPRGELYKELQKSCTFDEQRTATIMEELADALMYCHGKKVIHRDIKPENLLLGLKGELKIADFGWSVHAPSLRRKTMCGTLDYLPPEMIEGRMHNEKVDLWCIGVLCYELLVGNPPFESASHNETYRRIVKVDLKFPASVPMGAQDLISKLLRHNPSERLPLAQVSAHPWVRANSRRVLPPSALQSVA
T3 sequence (P10721 26-976): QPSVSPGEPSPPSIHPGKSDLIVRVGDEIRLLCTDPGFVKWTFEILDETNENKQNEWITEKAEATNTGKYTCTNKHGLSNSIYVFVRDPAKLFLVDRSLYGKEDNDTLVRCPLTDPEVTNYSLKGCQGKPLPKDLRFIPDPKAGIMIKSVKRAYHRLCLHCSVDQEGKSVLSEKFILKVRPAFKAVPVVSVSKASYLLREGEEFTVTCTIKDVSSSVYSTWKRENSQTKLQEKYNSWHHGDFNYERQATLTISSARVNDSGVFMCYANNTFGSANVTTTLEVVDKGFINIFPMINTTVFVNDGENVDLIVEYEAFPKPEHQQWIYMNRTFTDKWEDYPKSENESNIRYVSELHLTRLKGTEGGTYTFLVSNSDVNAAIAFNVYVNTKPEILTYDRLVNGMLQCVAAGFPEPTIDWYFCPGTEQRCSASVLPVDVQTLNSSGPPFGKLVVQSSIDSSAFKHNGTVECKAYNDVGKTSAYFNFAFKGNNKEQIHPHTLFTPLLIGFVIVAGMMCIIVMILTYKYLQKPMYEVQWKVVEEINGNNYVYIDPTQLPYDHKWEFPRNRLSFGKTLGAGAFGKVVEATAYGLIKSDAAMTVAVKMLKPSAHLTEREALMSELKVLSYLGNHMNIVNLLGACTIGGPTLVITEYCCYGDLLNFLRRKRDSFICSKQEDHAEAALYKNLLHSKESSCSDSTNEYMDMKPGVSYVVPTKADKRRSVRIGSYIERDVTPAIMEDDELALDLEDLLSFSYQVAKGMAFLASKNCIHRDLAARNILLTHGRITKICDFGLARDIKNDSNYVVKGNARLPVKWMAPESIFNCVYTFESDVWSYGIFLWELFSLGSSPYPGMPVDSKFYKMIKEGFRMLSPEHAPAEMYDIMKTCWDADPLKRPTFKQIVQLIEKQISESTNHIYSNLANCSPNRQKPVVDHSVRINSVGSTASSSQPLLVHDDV
T2 sequence (Q96GD4 whole entry): as the sequence (Q96GD4 whole entry) above

| percentage of kinase inhibition, AurA (AurA) | percentage of kinase inhibition, AurB (AurB) | SMILES | Dose Reduction Index (DRI) 6a + vemurafenib (WM266-4 cell line; [1]) | Dose Reduction Index (DRI) 6a + vemurafenib (WM266-4 cell line; [2]) | Dose Reduction Index (DRI) 6a + vemurafenib (WM266-4 cell line; [3]) | Dose Reduction Index (DRI) 6a + vemurafenib (A2058 cell line; [4]) | Dose Reduction Index (DRI) 6a + vemurafenib (A2058 cell line; [5]) | other results |
| --- | --- | --- | --- | --- | --- | --- | --- | --- |
| no inhibitory activity | no inhibitory activity | CN(C)c1ccc(NC(=O)Nc2ccc(SCc3n[nH]c(-c4ccc(Cl)cc4)n3)cc2)cc1 [Compound 6e] |  |  |  |  |  |  |
| no inhibitory activity |  | O=C(Nc1ccc(SCc2n[nH]c(-c3ccc(Br)cc3)n2)cc1)Nc1ccc(C(F)(F)F)cc1 [Compound 6g] |  |  |  |  |  |  |
|  | no inhibitory activity | COc1ccc(NC(=O)Nc2ccc(SCc3n[nH]c(-c4ccc(Br)cc4)n3)cc2)cc1OC [Compound 6h] |  |  |  |  |  |  |

Continued, compound first:

| SMILES | percentage of kinase inhibition, AurA (AurA) | percentage of kinase inhibition, AurB (AurB) | Dose Reduction Index (DRI) 6a + vemurafenib (WM266-4 cell line; [1]) | Dose Reduction Index (DRI) 6a + vemurafenib (WM266-4 cell line; [2]) | Dose Reduction Index (DRI) 6a + vemurafenib (WM266-4 cell line; [3]) | Dose Reduction Index (DRI) 6a + vemurafenib (A2058 cell line; [4]) | Dose Reduction Index (DRI) 6a + vemurafenib (A2058 cell line; [5]) | other results |
| --- | --- | --- | --- | --- | --- | --- | --- | --- |
| O=C(Nc1ccccc1)Nc1ccc(SCc2n[nH]c(-c3ccccc3)n2)cc1 [Compound 6a, 1-phenyl-3-(4-(((3-phenyl-1H-1,2,4-triazol-5-yl)methyl)thio)phenyl)urea] | most active of the synthesized series |  | 374.9 | 272.1 | 150 and 147.9 | 494.1 | 429.0 | quantity of the phosphorylated form of AurB (ratio phosphorylated AurB/total AurB) (AurB phosphorylation): weakly reduced; inhibition of c-Kit phosphorylation (ratio phosphorylated c-Kit/total c-Kit) (c-Kit phosphorylation): significant inhibition of c-Kit phosphorylation; percentage of kinase inhibition, AurC (AurC): most effective of the whole series; IC50 (WM266-4 cell line; Homo sapiens, WM 266-4, WM266-4, BRAF V600E, 72 h exposure, read-out: IC50 antiproliferative activity): 9.65 µM; IC50 (A2058 cell line; Homo sapiens, A2058, BRAF V600D, 72 h exposure, read-out: IC50 antiproliferative activity): 11.4 µM |
| CCCS(=O)(=O)Nc1ccc(F)c(C(=O)c2c[nH]c3ncc(-c4ccc(Cl)cc4)cc23)c1F [vemurafenib] |  |  | 1.1 | 1.2 | 1.4 | 21.8 | 22.2 | Dose Reduction Index (DRI) 6a + vemurafenib (A2058 cell line; A2058, affected cell fraction 95%): 22.9 |
